# Laboratory results as given in ChEMBL document CHEMBL1201862, “PubChem BioAssay data set” (2004).
# Active and inactive are the calls of the source.
# Experiments:
# [1] = biological target: Luciferin 4-monooxygenase (Photinus pyralis, UniProt P08659); assay: inhibition of purified Photinus pyralis luciferase – biochemical, luminescence, dose response (AID 1891)
# [2] = Luminescence Cell-Based Dose Confirmation HTS to Identify Activators of 5'UTR Stem-Loop Driven Alpha-Synuclein mRNA Translation in H4 Neuroglioblastoma Cells. [Related pubchem assays: 1829 (Project Summary), 1814 (Primary HTS)]; assay type: functional
# [3] = biological target: Neuropeptide Y receptor type 1 (Homo sapiens, UniProt P25929); assay: Fluorescence-based counterscreen for agonists of NPY-Y2: cell-based high-throughput dose response assay for agonists of NPY-Y1.; assay type: functional
# [4] = Luminescence Cell-Based Dose Confirmation HTS to Identify Inhibitors of Platelet Dense Granule Release. [Related pubchem assays: 1663 (Primary HTS), 1678 (Summary of Project)]; assay type: functional
# [5] = biological target: Neuropeptide Y receptor type 2 (Homo sapiens, UniProt P49146); assay: Fluorescence-based cell-based high-throughput dose response assay for agonists of NPY-Y2. [Related pubchem assays: 1703 (Screening assay (CNGC inhibitors).), 1359 (Screening assay (NPY-Y2 potentiators or agonists).), 1304 (Screening assay (NPY-Y1 potentiators or agonists).), 1710 (Screening assay (NPY-Y2 agonists).), 1791 (Summary AID.)]; assay type: functional
# [6] = test system: H4; assay: Luminescence Cell-Based Dose Response HTS to Identify Activators of 5'UTR Stem-Loop Driven Prion Protein mRNA Translation in H4 Neuroglioblastoma Cells. [Related pubchem assays: 1829 (Project Summary), 1814 (Primary HTS)]; assay type: functional; conditions: Homo sapiens
# [7] = test system: HEK293; assay: Fluorescence-based counterscreen for potentiators or agonists of NPY-Y2: cell-based high-throughput dose response assay to identify inhibitors of cyclic nucleotide gated ion channel (CNGC) activity. In this assay, the parental HEK293 cell line transfected with a cyclic-nucleotide gated ion channel (CNGC)-based cAMP sensor is used to measure inhibition of isoproterenol-induced CNGC activity by test compound.; assay type: functional; conditions: Homo sapiens;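 also: stimulus is 1 µM isoproterenol at EC100 plus PDE inhibitor Ro 20-1724 at 25 µM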
# [8] = Luminescence Cell-Based Dose Response HTS to Identify Activators of Luciferase Translation or Activity in H4 […] Cells. [Related pubchem assays: 1829 (Project Summary), 1814 (Primary HTS)]; assay type: functional
# [9] = cells; assay type: functional, cell-based; conditions: HEK-CNG
# [10] = biological target: Galanin receptor type 3 (Homo sapiens, UniProt O60755); assay: Fluorescence-based cell-based primary high throughput dose response assay to identify antagonists of the Galanin Receptor 3 (GalR3).; assay type: functional
# [11] = test system: Streptococcus; assay: GAS UMAA2166 growth inhibition – luminescence, BacTiterGlo, counter-screen for streptokinase expression inhibitor project, dose response (AID 1915); assay type: functional, organism-based;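 also: potency for reduction of bacterial viability or growth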
# [12] = test system: Streptococcus sp. 'group A'; assay: Streptococcus pyogenes SK(-)GAS viability under kanamycin – luminescence, BacTiterGlo, confirmation, counter-screen for streptokinase expression inhibitor project, dose response (AID 1900); assay type: functional, organism-based
# [13] = biological target: T1, Streptokinase A (Streptococcus pyogenes serotype M1, UniProt P10520); assay: viability-normalized secreted streptokinase activity reduction – plasminogen activation absorbance, OD405, dose response (AID 1914); assay type: functional, Streptococcus pyogenes M1 GAS;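 also: secreted streptokinase activity via plasminogen activation per viability signal from cell pellet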
# T1 sequence (P10520 whole entry): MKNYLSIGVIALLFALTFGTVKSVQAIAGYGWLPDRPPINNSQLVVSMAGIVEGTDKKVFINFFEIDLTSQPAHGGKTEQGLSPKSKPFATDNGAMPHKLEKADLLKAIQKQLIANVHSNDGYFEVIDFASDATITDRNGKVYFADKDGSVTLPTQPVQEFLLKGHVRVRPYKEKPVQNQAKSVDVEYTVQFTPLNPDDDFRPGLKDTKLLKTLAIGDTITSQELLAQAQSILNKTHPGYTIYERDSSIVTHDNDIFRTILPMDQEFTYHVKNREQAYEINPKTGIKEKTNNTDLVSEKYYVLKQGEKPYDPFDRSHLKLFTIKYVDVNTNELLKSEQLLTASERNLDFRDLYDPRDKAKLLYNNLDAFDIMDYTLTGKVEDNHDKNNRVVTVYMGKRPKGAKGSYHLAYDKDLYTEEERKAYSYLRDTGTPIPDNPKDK
# [14] = test system: Streptococcus; assay: Luminescence Microorganism-Based Dose Response Follow up to Identify Compounds Cytotoxic to Streptococcus. [Related pubchem assays: 1677 (Project Summary), 1915, 1914, 1902 (Retest at Dose), 1900 (Counter Screen), 1662 (Primary HTS)]; assay type: functional, organism-based
# [15] = biological target: Dual specificity protein phosphatase 3 (Homo sapiens, UniProt P51452); assay: VHR phosphatase inhibition, dose response, selectivity assay for STEP inhibitor project, biochemical (AID 602374); assay type: functional; conditions: read-out: IC50_Mean
# [16] = biological target: Tyrosine-protein phosphatase non-receptor type 11 (Homo sapiens, UniProt Q06124); assay: PTPN11 enzyme inhibitors – biochemical, selectivity assay for STEP inhibitor project, dose response (AID 602367); assay type: functional; conditions: read-out: IC50_Mean
# [17] = test system: Vero; assay: viability of Vero cells under compound – cytotoxicity control for flavivirus capping enzyme inhibitors (AID 588742); assay type: functional; conditions: Chlorocebus sabaeus
# [18] = biological target: ORF 73 (Human herpesvirus 8, UniProt O40947); assay: KSHV LANA DNA-binding disruption – biochemical, fluorescence polarization, cherry-picked samples, dose response (AID 504725); parameters: species or system Human gammaherpesvirus 8;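 also: fluorescence polarization of a labeled DNA duplex reporting LANA DNA binding; potency is for inhibitors that block LANA binding to the DNA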
# [19] = biological target: Tyrosine-protein phosphatase non-receptor type 5 (Homo sapiens, UniProt P54829); assay: PTPN5 enzyme inhibition – biochemical, fluorescence intensity, uHTS hits, confirmation (AID 602372); assay type: functional; conditions: read-out: IC50_Mean
# [20] = biological target: Genome polyprotein (dengue virus type 2, UniProt P29990); assay: flavivirus cap methylation enzyme inhibition – biochemical, confirmation dose response, primary screen (AID 588689); assay type: functional
# [21] = test system: HeLa; assay: viability loss in HeLa cells – cell-based, 24 h, cherry-picked samples, cytotoxicity control, dose response (AID 504726); assay type: functional; conditions: Homo sapiens;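 also: potency for cytotoxicity as loss of luminescence signal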
# Sequence of ORF 73 (O40947 whole entry): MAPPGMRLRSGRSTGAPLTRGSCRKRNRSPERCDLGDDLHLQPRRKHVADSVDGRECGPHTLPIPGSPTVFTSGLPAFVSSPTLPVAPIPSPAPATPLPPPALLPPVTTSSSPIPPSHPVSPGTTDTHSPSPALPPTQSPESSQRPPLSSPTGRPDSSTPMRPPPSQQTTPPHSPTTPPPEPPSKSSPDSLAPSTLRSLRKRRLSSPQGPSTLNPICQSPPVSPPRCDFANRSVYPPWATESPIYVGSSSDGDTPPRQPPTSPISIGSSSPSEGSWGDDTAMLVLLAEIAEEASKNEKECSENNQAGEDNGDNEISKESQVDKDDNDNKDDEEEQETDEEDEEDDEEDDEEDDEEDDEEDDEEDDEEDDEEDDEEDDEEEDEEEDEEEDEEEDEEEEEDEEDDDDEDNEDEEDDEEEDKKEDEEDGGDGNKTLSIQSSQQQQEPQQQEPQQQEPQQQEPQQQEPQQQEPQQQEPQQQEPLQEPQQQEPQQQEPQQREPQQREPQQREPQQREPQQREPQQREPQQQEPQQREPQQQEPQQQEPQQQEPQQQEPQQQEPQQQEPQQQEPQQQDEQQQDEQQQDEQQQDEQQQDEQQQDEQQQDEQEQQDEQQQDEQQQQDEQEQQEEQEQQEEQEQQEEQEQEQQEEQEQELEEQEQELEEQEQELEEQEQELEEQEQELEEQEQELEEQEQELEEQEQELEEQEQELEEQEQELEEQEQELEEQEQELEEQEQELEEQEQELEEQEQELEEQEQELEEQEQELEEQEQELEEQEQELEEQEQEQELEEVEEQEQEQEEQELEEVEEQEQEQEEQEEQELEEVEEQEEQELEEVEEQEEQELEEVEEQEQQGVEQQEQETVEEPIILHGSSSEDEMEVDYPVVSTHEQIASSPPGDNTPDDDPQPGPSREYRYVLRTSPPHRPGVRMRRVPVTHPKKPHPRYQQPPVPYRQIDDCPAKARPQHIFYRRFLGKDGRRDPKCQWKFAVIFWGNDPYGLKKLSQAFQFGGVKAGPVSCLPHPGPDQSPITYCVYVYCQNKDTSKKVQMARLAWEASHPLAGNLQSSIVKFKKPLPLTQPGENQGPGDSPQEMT
# Sequence of Genome polyprotein (P29990 2492-3391 limits assumed): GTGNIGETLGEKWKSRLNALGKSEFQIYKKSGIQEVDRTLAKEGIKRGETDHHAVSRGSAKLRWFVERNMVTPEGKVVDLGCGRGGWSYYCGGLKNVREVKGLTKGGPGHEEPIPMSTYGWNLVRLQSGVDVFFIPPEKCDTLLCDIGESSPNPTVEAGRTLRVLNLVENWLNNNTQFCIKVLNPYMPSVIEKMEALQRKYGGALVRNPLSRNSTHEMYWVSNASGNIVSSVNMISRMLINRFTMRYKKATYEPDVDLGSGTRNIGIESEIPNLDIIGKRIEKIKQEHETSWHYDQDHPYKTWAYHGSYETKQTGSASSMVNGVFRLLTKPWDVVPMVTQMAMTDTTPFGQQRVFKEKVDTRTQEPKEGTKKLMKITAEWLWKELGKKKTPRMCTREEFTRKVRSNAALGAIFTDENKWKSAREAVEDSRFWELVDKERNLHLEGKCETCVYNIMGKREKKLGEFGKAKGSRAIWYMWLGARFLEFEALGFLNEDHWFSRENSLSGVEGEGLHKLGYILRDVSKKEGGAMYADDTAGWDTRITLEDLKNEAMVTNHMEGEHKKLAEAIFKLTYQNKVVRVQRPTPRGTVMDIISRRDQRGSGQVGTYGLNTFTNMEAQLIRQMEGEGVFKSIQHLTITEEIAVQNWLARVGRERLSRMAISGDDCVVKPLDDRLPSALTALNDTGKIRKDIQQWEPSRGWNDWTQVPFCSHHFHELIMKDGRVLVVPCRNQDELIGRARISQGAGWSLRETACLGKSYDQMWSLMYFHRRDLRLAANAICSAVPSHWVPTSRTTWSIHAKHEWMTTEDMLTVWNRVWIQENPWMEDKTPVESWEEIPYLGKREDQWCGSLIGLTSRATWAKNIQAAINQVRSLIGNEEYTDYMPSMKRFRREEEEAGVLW
# Sequence of Neuropeptide Y receptor type 1 (P25929 whole entry): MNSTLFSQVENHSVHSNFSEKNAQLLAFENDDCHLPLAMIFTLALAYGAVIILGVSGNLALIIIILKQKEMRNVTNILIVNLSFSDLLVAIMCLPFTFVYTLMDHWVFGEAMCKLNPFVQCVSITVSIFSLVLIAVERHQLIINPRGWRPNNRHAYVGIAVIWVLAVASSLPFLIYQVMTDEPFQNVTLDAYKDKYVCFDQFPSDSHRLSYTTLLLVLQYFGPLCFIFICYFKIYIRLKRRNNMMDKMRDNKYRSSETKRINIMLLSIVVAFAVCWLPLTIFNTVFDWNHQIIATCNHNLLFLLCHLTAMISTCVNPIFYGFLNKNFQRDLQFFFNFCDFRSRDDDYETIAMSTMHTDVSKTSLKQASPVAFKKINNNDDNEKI
# Sequence of Dual specificity protein phosphatase 3 (P51452 whole entry): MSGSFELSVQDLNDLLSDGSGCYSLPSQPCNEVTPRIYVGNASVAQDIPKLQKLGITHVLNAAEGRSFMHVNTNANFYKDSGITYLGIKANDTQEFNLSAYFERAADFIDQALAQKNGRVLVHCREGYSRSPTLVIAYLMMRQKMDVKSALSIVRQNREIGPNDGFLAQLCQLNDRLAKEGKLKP
# Sequence of Galanin receptor type 3 (O60755 whole entry): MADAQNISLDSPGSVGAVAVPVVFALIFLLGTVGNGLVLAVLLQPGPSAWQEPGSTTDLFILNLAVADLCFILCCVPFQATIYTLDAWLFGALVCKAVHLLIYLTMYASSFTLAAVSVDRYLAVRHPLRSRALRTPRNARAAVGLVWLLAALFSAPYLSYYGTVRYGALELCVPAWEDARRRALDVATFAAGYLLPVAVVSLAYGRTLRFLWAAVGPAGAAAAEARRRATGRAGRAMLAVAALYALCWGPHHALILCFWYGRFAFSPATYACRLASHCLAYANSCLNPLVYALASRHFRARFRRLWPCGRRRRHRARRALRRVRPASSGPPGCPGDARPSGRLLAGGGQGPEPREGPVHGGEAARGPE
# Sequence of Tyrosine-protein phosphatase non-receptor type 5 (P54829 whole entry): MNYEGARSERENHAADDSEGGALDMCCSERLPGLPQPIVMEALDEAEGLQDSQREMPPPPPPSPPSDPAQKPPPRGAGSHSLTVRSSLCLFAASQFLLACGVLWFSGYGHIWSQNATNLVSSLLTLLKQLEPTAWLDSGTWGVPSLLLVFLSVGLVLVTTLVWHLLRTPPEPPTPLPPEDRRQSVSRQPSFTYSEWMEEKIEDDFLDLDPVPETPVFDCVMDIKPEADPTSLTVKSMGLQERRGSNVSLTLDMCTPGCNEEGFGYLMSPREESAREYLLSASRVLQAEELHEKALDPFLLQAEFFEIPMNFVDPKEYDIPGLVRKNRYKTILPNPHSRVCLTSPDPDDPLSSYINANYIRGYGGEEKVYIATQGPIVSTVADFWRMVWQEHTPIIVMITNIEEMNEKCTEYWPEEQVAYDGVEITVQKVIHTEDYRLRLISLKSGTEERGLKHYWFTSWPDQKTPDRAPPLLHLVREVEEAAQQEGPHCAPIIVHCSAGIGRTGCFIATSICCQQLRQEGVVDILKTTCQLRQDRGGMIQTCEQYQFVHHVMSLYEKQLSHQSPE
# Sequence of Neuropeptide Y receptor type 2 (P49146 whole entry): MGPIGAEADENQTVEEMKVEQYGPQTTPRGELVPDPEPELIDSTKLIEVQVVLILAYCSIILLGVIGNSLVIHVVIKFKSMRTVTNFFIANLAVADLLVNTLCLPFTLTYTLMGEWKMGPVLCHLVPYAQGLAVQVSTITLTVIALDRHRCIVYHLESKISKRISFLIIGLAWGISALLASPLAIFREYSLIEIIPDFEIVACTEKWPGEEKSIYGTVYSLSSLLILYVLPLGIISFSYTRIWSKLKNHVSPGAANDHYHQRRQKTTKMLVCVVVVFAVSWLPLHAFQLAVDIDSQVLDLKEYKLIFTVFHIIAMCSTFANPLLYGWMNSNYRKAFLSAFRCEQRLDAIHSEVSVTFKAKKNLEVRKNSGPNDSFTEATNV
# Sequence of Tyrosine-protein phosphatase non-receptor type 11 (Q06124 whole entry): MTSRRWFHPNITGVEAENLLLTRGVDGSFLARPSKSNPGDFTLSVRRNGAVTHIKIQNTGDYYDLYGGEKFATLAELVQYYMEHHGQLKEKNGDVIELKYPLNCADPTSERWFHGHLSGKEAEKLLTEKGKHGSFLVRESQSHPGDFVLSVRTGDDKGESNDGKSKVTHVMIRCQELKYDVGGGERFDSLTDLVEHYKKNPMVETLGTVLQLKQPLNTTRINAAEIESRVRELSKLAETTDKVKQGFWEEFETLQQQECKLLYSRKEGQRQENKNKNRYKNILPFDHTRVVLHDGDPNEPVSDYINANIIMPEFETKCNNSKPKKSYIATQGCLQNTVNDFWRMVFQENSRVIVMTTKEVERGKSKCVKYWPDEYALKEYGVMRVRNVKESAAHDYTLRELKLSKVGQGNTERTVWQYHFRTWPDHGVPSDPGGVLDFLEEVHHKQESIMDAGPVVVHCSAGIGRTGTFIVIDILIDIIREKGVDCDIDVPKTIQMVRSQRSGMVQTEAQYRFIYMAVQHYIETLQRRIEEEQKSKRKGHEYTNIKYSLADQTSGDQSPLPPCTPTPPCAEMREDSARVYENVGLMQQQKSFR
# Sequence of Luciferin 4-monooxygenase (P08659 whole entry): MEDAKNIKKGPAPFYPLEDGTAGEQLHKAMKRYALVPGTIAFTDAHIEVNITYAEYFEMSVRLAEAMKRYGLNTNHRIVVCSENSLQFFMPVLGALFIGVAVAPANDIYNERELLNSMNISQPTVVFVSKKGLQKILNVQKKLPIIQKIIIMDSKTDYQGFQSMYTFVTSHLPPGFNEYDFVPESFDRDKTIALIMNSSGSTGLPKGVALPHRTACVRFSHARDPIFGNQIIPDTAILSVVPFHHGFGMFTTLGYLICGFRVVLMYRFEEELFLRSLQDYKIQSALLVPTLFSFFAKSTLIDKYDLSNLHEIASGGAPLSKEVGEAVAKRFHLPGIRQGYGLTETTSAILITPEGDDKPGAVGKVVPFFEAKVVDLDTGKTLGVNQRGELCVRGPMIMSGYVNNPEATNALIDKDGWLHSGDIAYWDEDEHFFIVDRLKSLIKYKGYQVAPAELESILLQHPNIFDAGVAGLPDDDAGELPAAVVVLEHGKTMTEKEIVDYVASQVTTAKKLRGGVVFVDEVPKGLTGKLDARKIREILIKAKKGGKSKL
smiles,measurement,setting,value
Nc1cc(-c2ccc(Br)cc2)nn1Cc1ccccc1,EC50,[1],> 112 µM (not active)
same,EC50,[2],7.99 µM (active)
same,EC50,[3],11.6 µM (not active)
same,EC50,[4],> 112 µM (not active)
same,EC50,[5],13.1 µM (not active)
same,EC50,[6],13.1 µM (active)
same,EC50,[7],9.3 µM (active)
same,EC50,[8],18 µM (active)
same,EC50,[9],> 29.9 µM (inactive)
same,IC50,[10],3.55 µM (active)
CCOC(=O)c1c(NC(=O)c2cccs2)sc(CC)c1-c1cccs1,EC50,[11],> 150 µM (not active)
same,EC50,[12],47.6 µM (active)
same,EC50,[13],9.89 µM (active)
same,EC50,[14],> 500 µM (not active)
CC1=C(O)C(O)=C(C2=C(O)C(O)=C(C)C(=O)C2=O)C(=O)C1=O,IC50,[15],1.27 µM (active)
same,IC50,[16],< 0.16 µM (active)
same,CC50,[17],31.7 µM (active)
same,AC50,[18],312 µM (active)
same,IC50,[19],> 80 µM (inactive)
same,IC50,[20],28.3 µM (active)
same,AC50,[21],61.8 µM (active)
